# In US20100144873A1, “TREATMENT OF MYOCARDITIS USING FTS” (RAMOT AT TEL-AVIV UNIVERSITY LTD., priority 2007, published 2010):
# How the values were obtained:
# [1] = test system: Ras and its downstream signaling effectors in lymphocytes; assay: Western immunoblotting of total Ras, Erk, P-Erk, Akt, P-Akt in lymphocytes of treated rats; format: in vivo, Lewis rat
# Description: (§1) Two groups of rats were induced to develop EAM by immunization with cardiac myosin according to two protocols. In Protocol 1 (prevention regimen), FTS or PBS (control) was administered two (2) days prior to myosin immunization at a dose of 5 mg/kg (FTS pre-treatment before immunization). Thereafter, dosing was continued for a period of fourteen (14) days with administration of FTS or PBS occurring every other day. In Protocol 2 (treatment regimen), FTS or PBS (control) was administered fourteen (14) days after porcine cardiac myosin immunization at a dose of 5 mg/kg (FTS post-EAM). Thereafter, dosing was continued for a period of seven (7) days with administration of FTS or PBS occurring every other day. Under both protocols, the Lewis rats were sacrificed at day 21 and hearts, lymph nodes and spleens were excised for histological and immunological analyses.
# Lymphocytes were obtained from lymph nodes of FTS- and PBS-treated rats. The lymphocytes were homogenized in cold homogenization buffer containing protease inhibitors. Protein concentration was determined by the Bradford assay and samples containing 100 μg protein were used for determination of total Ras, total Erk, P-Erk, total Akt and P-Akt by Western immunoblotting using, respectively: pan-anti-Ras Ab (Ab03; Santa Cruz, Calif.), anti Erk Ab (Santa Cruz, Calif.), anti P-Erk Ab (Sigma), anti Akt Ab (Cell Signaling), and anti P-Akt Ab (Cell Signaling).
# Enhanced chemiluminescence (ECL) and densitometric analysis were performed as detailed in R. Haklai, M. G. Weisz, G. Elad, et al., Biochemistry 37:1306-1314 (1998).
# [2] = test system: myocardial dysfunction following myosin-induced EAM; assay: M-mode echocardiography after six weeks of FTS in EAM; format: in vivo, Lewis rat; conditions: FTS 5 mg/kg from 2 days before myosin immunization, every other day for six weeks; vs PBS-treated
# Description: (§2) Porcine cardiac myosin (Sigma) was dissolved in PBS to a concentration of 0.4 μg/ul. Each rat was immunized by a single subcutaneous injection in both footpads on day 0 with an emulsion containing 1 mg of cardiac myosin with an equal volume of complete Freund's adjuvant containing 10.0 mg/mL of heat-killed Mycobacterium tuberculosis.
# (§3) FTS was provided by Concordia Pharmaceuticals, Inc. (Ft. Lauderdale, Fla.). FTS was stored in chloroform, which was evaporated under a stream of nitrogen immediately before use. The powder was dissolved in absolute ethanol and diluted to the desired concentration in sterile PBS made basic with NaOH. Carrier solution (1000 μl) containing 1.35 mg of FTS (5 mg/kg) was injected intraperitoneally (i.p.) into each rat. Control solution was prepared at the same time, starting with PBS and absolute ethanol.
# Another group of experiments was designed to study the effects of FTS on prevention of myocardial dysfunction following myosin-induced EAM. Under this regimen, FTS or PBS was given two (2) days before myosin immunization, then every other day for six (6) weeks (when compromised heart function is expected). After six (6) weeks, M-mode echocardiography was performed as described in George J, Biner S, Keren P, Barshack I, Goldberg I, Sherez J, Levitski A, Keren G, Roth A. Exp Mol. Pathol. 74(3):314-8 2003. […]
# [3] = human Phase I, doses up to 1800 mg/day; cited from earlier work
# [4] = test system: experimental autoimmune myocarditis (EAM); assay: Histopathology, H&E: severity of myocarditis (Dallas criteria) in EAM; format: in vivo, Lewis rat; conditions: FTS 5 mg/kg i.p., mean±SE, control group 1.61±0.23, p<0.05
# Description: as §2, §3
# Two groups of rats were induced to develop EAM by immunization with cardiac myosin according to two protocols. […]
# Hearts were removed and fixed in 10% formalin, then embedded in paraffin. […] Every fifth section was examined for the presence of myocarditis by light microscopy, and was evaluated according to previously published criteria (the Dallas criteria) describing the severity of myocarditis as follows: severe (2)>50% of the heart involved; moderate (1)=10-50% involved; and minimal (0)=<10% involved, or normal. […]
# [5] = test system: lymphocytes from lymph nodes of rats with EAM; assay: Ex vivo proliferation assay with FTS (XTT, 96 h) on lymphocytes from EAM rats; format: cell-based, rat
# Description: FTS was provided by Concordia Pharmaceuticals, Inc. (Ft. Lauderdale, Fla.). FTS was stored in chloroform, which was evaporated under a stream of nitrogen immediately before use. The powder was dissolved in DMSO. This solution was diluted with RPMI/10% FCS to yield a 10 mM drug stock solution containing 10% DMSO. A portion of this solution was applied to the cells at a dilution of 1:100. Ex Vivo Proliferation Assay with FTS Five (5) rats with EAM were sacrificed on day fourteen (14). Lymphocytes were taken from lymph nodes, prepared as described and 1×10^5 cells/well seeded in 96 microwell plates. Lymphocytes were incubated in the presence of Myosin 2.5 μg/ml or Concavalin A in the presence of 0, 3.125, 6.25, 12.5, and 25 μM FTS. Lymphocyte proliferation was evaluated using XTT reagent after 96 h of incubation. To investigate the effect of FTS on the proliferative capacity of lymphocytes from EAM rats against myosin ex vivo, lymph nodes were excised from the EAM rodent models fourteen (14) days following myosin immunizations. Thereafter, lymphocytes were incubated in the presence of (A) myosin (2.5 μg/ml) and (B) Concavalin A (4 μg/ml) with varying concentrations of FTS. […] The proliferation rate was reduced in the presence of 50 μM FTS ex vivo by 48% (FIG. 1B). Thus, proliferation of lymphocytes against potential cardiac epitopes may be attenuated following FTS administration.
# [6] = test system: lymphocytes from lymph nodes of FTS-treated Lewis rats; assay: Lymphocyte proliferation assay (XTT) on lymphocytes from FTS-treated myosin-immunized rats; format: in vivo, Lewis rat
# Description: as §2, §3
# (§4) Two groups of rats were induced to develop EAM by immunization with cardiac myosin according to two protocols. In Protocol 1 (prevention regimen), FTS or PBS (control) was administered two (2) days prior to myosin immunization at a dose of 5 mg/kg (FTS pre-treatment before immunization). Thereafter, dosing was continued for a period of fourteen (14) days with administration of FTS or PBS occurring every other day. […]
# Lymphocyte proliferation was evaluated using XTT reagent, according to standard procedures, after 96 h of incubation. […]
# [7] = test system: experimental autoimmune myocarditis (EAM); assay: Histopathology, Masson trichrome: scar area (collagen deposition) in EAM; format: in vivo, Lewis rat; conditions: FTS 5 mg/kg i.p., vs control rats
# Description: as §2, §3
# Two groups of rats were induced to develop EAM by immunization with cardiac myosin according to two protocols. In Protocol 1 (prevention regimen), FTS or PBS (control) was administered two (2) days prior to myosin immunization at a dose of 5 mg/kg (FTS pre-treatment before immunization). […]
# In order to evaluate the severity of scaring of the heart tissue, Masson trichrome staining was performed to assess collagen deposition in the three study groups. […] FIGS. 4B and C illustrate typical representations of the stained sections and quantitative analysis of the results.
# [8] = test system: IgG anti-myosin antibodies; assay: IgG anti-myosin antibody levels in sera by ELISA; format: in vivo, Lewis rat; conditions: FTS 5 mg/kg i.p., p<0.05 vs control
# Description: as §2, §3, §4
# active GTP-bound Ras = assay: Ras-GTP determination by glutathione S-transferase-RBD pull-down assay in lymphocytes of treated rats; format: in vivo, Lewis rat
# Description: as §1
# The lymphocytes were prepared as mentioned above. Samples containing 1.5 mg protein used for determination of levels of active GTP-bound Ras by the glutathione S-transferase-RBD pull-down assay followed by Western immunoblotting with pan-anti-Ras Ab as detailed in G. Elad-Sfadia, R. Haklai, E. Ballan et al., J. Biol. Chem. 277:37169-75 (2002).
# [9] = Protocol 1 FTS-treated rats vs control
# [10] = Protocol 1 FTS-treated rats vs control animals
compound,measurement,setting,value
"CC(C)=CCC/C(C)=C/CC/C(C)=C/CSc1ccccc1C(=O)O [FTS, S-farnesylthiosalicylic acid]",phospho-Akt level in lymphocytes,[1]; [9],significant decrease
same,phospho-Erk level in lymphocytes,[1]; [9],significant decrease
same,total Akt level in lymphocytes,[1]; [9],not affected
same,total Erk level in lymphocytes,[1]; [9],not affected
same,total Ras level in lymphocytes,[1]; [10],downregulated
same,fractional shortening (systolic parameter),[2],improved
same,left ventricular diastolic diameter,[2],improved
same,dose-limiting toxicities,[3],no dose-limiting toxicities
same,severity of myocarditis (myocarditis score),[4]; Protocol 1 (prevention),0.28±0.15 scale of 0-2 arbitrary units
same,severity of myocarditis (myocarditis score),[4]; Protocol 2 (treatment),0.33±0.24 scale of 0-2 arbitrary units
same,reduction of proliferation rate of Concavalin A-treated lymphocytes,"[5]; Concavalin A 4 μg/ml, 50 μM FTS ex vivo",48%
same,proliferation of Concavalin A-treated lymphocytes vs controls,"[5]; Concavalin A 4 μg/ml, varying concentrations of FTS ex vivo",dose-dependent reduction in proliferation
same,reduction of lymphocyte proliferation to myosin,"[5]; myosin 2.5 μg/ml, FTS 25 and 50 μM, ex vivo, vs controls, p<0.05",79±7%
same,proliferation in response to non-specific mitogen Concavalin A,[6]; FTS-treated rats vs control animals (data not shown),not diminished
same,decrease in lymphocyte proliferation in comparison with PBS,"[6]; Protocol 1 (prevention): FTS 5 mg/kg i.p. from 2 days before myosin immunization, every other day for 14 days, p<0.05",~35%
same,collagen deposition (scar formation),[7]; Protocol 1 (prevention),reduced collagen deposition
same,collagen deposition (scar formation),[7]; Protocol 2 (treatment),reduced collagen deposition
same,IgG anti-myosin antibody levels,[8]; Protocol 1 (prevention),significantly reduced levels of IgG anti-myosin antibody
same,IgG anti-myosin antibody levels,[8]; Protocol 2 (treatment),significantly reduced IgG anti-myosin antibody levels
same,Ras-GTP level in lymphocytes,active GTP-bound Ras; [10],downregulated
same,ratio of Ras-GTP to total Ras,active GTP-bound Ras; lymphocytes of Protocol 1 FTS-treated rats,did not significantly alter
